# Source: patent US20240174618A1, “SUBSTITUTED (2-HETEROARYLOXYPHENYL)SULFONATES, SALTS THEREOF AND THEIR USE AS HERBICIDAL AGENTS” (Bayer Aktiengesellschaft, priority 2021, published 2024)
# How the values were obtained:
# Type in all cases: in vivo
# Kochia scoparia (KCHSC) [1] = assay: E. Herbicidal post-emergence efficacy, KCHSC
# Outline: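 Compounds applied at 320 g/ha or less as a foliar spray (600 l/ha, 0.5% additive) to one-leaf-stage greenhouse plants grown in sandy loam. Damage is visually scored in percent relative to untreated plants after about 3 weeks.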
# Lolium rigidum (LOLRI) [2] = assay: C. Herbicidal pre-emergence efficacy, LOLRI; details: scored after about 3 weeks
# Outline: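 Pre-emergence test: formulated compounds sprayed as aqueous suspension or emulsion with 0.5% additive at 600 l/ha onto soil covering sown seeds, at rates corresponding to 320 g/ha or less. After about 3 weeks in greenhouse, efficacy scored visually as percent versus untreated controls (100% = plants dead).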
# Kochia scoparia (KCHSC) [3] = assay: B. Herbicidal post-emergence efficacy, KCHSC; details: for Post-emergence efficacy against KCHSC in %: rated visually after about 3 weeks; for Post-emergence efficacy against KCHSC: 1280 g/ha
# Outline: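 Visual percent efficacy relative to untreated controls (0% unaffected, 100% dead), scored roughly 3 weeks after foliar spraying of one-leaf-stage pot-grown plants with WP or EC preparations at application rates up to 1280 g/ha in 600 L/ha water containing 0.5% additive.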
# Lolium rigidum (LOLRI) [4] = assay: A. Herbicidal pre-emergence efficacy, LOLRI
# Outline: (§1)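 Applied before emergence onto covering soil at rates of 1280 g/ha or less, using 600 L/ha spray water with 0.5% additive. Scoring: visual % efficacy after ~3 weeks, greenhouse.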
# [5] = system: Alopecurus myosuroides (ALOMY); assay: A. Herbicidal pre-emergence efficacy, ALOMY; details: scored visually after about 3 weeks vs untreated controls
# Outline: as §1
# [6] = system: Amaranthus retroflexus (AMARE); assay: A. Herbicidal pre-emergence efficacy, AMARE
# Outline: as §1
# [7] = system: Digitaria sanguinalis (DIGSA); assay: A. Herbicidal pre-emergence efficacy, DIGSA; details: scored visually after about 3 weeks vs untreated controls
# Outline: as §1
# [8] = system: Matricaria inodora (MATIN); assay: A. Herbicidal pre-emergence efficacy, MATIN
# Outline: as §1
# [9] = pre-emergence, dosage 1280 g/ha
# [10] = 320 g/ha, scored visually after about 3 weeks vs untreated controls
SMILES,Post-emergence efficacy against KCHSC in % (Kochia scoparia (KCHSC) [1]; application rate 320 g/ha) [%],Pre-emergence efficacy against LOLRI (Lolium rigidum (LOLRI) [2]; 320 g/ha) [%],Post-emergence efficacy against KCHSC in % (Kochia scoparia (KCHSC) [3]; 320 g/ha) [%],Post-emergence efficacy against KCHSC (Kochia scoparia (KCHSC) [3]) [%],Pre-emergence efficacy against LOLRI (Lolium rigidum (LOLRI) [4]; dosage 320 g/ha) [%],Pre-emergence efficacy against LOLRI (Lolium rigidum (LOLRI) [4]; dosage 1280 g/ha) [%],Pre-emergence efficacy against ALOMY ([5]; 320 g/ha) [%],Pre-emergence efficacy against ALOMY ([5]; 1280 g/ha) [%],Pre-emergence efficacy against AMARE in % ([6]; 80 g/ha) [%],Pre-emergence efficacy against AMARE in % ([6]; 320 g/ha) [%],Pre-emergence efficacy against AMARE in % ([6]; 1280 g/ha) [%],Pre-emergence efficacy against DIGSA ([7]; 80 g/ha) [%],Pre-emergence efficacy against DIGSA ([7]; 320 g/ha) [%],Pre-emergence efficacy against DIGSA ([7]; 1280 g/ha) [%],"Pre-emergence efficacy against MATIN [8, 9] [%]",Post-emergence efficacy against KCHSC in % (Kochia scoparia (KCHSC) [1]; application rate 80 g/ha) [%],Pre-emergence efficacy against LOLRI (Lolium rigidum (LOLRI) [2]; 80 g/ha) [%],Post-emergence efficacy against KCHSC in % (Kochia scoparia (KCHSC) [3]; 80 g/ha) [%],"Pre-emergence efficacy against MATIN [8, 10] [%]"
Cc1cccc(Oc2ncc(F)cn2)c1OS(=O)(=O)CCC(F)(F)F [Example I-45],90,90,90,100,100,100,90,100,90,100,100,90,100,100,90,–,–,–,–
Cc1cccc(Oc2ncc(F)cn2)c1OS(=O)(=O)CCCC(F)(F)F [Example I-46],100,100,–,100,100,100,–,100,100,100,100,90,100,100,90,–,–,–,–
O=S(=O)(CCC(F)(F)F)Oc1c(F)cccc1Oc1ncc(F)cn1 [Example I-47],100,100,100,100,100,100,100,100,100,100,100,100,100,100,100,100,90,100,100
O=S(=O)(CCC(F)(F)F)Oc1c(F)cccc1Oc1ncc(Cl)cn1 [Example I-48],100,100,90,90,90,90,90,90,90,90,100,100,100,100,100,100,90,90,100
